The nature of the experiment: Inhibition of EthR in Mycobacterium tuberculosis H37Rv-GFP infected in mouse Raw 264.7 cells assessed as compound concentration allowing 0.1 uM ethionamide to inhibit 50% microbial growth by automated fluorescent confocal microscopy.

Where only a bound is given, the exact number is not on record here.

Broadly, the EC50 is the midpoint of the concentration-response curve. Consider `COc1cccc(OCC(=O)Nc2ccc(-c3nc4ccccc4s3)cc2)c1`, for which the EC50 was 210 nM.

Take `Cc1ccc2cc(NC(=O)COc3ccccc3F)ccc2n1`: the EC50 came out at 2200 nM.

Take `COc1cccc(OCC(=O)Nc2ccc(Cl)cc2)c1`: the concentration for a half-maximal effect (EC50) turned out to be 1600 nM.

In the case of `Cc1ccc(-n2nc3ccc(NC(=O)COc4ccccc4C)cc3n2)cc1`, the 50% effective concentration (EC50) is more than 10000 nM.

In the case of `COc1cccc(SCC(=O)Nc2ccc(-c3nc4ccccc4s3)cc2)c1`, the concentration giving a half-maximal response (EC50) is more than 10000 nM.

As to `N#Cc1cccc(OCC(=O)Nc2ccc(-c3nc4ccccc4s3)cc2)c1`, the EC50 worked out at 340 nM.

For the origin of these results see BindingDB's records for doi:10.1021/jm300377g (University of Lille, 2012).
